Drawing on EP0067612A1, “Penicillin derivatives” (BEECHAM GROUP PLC, priority 1981, dated 1982), this text covers MIC for 2 molecules.

Counter-ions that a name gives are not always drawn. Where only a bound is given, the exact number is not on record here.

What all share (test): Antibacterial activity, MIC (agar)
What all share (type): cell-based

The test system of one test is E. coli ESS. To be noted: Escherichia coli. An excerpt: (§1) The antibacterial activities of compounds of the present invention (MIC µg/ml)
For another test, the system named is K. aerogenes A. To be noted: Klebsiella aerogenes.
Excerpt: as §1

Another test has as its system E. coli JT 4. To be noted: Escherichia coli, JT4.
Excerpt: as §1

The subject of another test is S. marcescens US 32. To be noted: Serratia marcescens, US32.
Excerpt: as §1

Another test relates to P. rettgeri. To be noted: Providencia rettgeri.
Excerpt: as §1

The next test concerns N. catarrhalis 1502.
Excerpt: as §1

Another test relates to P. mirabilis 889. To be noted: Proteus mirabilis.
Excerpt: as §1

For another test, the system named is E. cloacae N1. To be noted: Enterobacter cloacae.
Excerpt: as §1

Another test concerns E. coli NCTC 10418. To be noted: Escherichia coli, NCTC10418.
Excerpt: as §1

Test [1] has as its system Ps. aeruginosa NCTC 10662. To be noted: Pseudomonas aeruginosa.
Excerpt: as §1

The next test relates to S. pyogenes CN 10. To be noted: Streptococcus pyogenes, CN10.
Excerpt: as §1

For another test, the system named is P. mirabilis C 977. To be noted: Proteus mirabilis, C977.
Excerpt: as §1

In another test the test system is Ps. aeruginosa Dalgleish. To be noted: Pseudomonas aeruginosa, Ps. aeruginosa Dalgleish 10^-2.
Excerpt: as §1

For the next test, the system named is S. aureus Russell. To be noted: Staphylococcus aureus.
Excerpt: as §1

The test system of the next test is S. aureus Oxford. To be noted: Staphylococcus aureus.
Excerpt: as §1

The test system of a further test is E. coli JT 425. To be noted: Escherichia coli, JT425.
Excerpt: as §1

In a further test the test system is S. faecalis I. To be noted: Enterococcus faecalis.
Excerpt: as §1

Where [2] appears, read: NCTC10662, Ps. aeruginosa NCTC 10662.
Where [3] appears, read: NCTC10662, Ps. aeruginosa NCTC 10662 10^-2.

For `NS(=O)(=O)c1ccc(Nc2ncc(NC(=O)N[C@@H](C(=O)N[C@@H]3C(=O)N4[C@@H](C(=O)O)CS[C@H]34)c3ccccc3)c(O)n2)cc1` [Example 3, 6β-[D,2-{2-(4-Aminosulphonylanilino)-4-hvdroxypyrimidyl-5-aminocarbonylamino}-2-phenyl]acetamidobisnor penicillanic acid, sodium salt], the MIC (as a rule, the lowest concentration found to suppress growth) against E. coli ESS was 0.05 µg/mL; against K. aerogenes A, 0.2 µg/mL; against E. coli JT 4 it was above 100 µg/mL; against S. marcescens US 32, 2.5 µg/mL; against P. rettgeri, 1 µg/mL; against N. catarrhalis 1502 it was 0.05 µg/mL. The MIC against P. mirabilis 889 was above 100 µg/mL; with E. cloacae N1, 1 µg/mL; against E. coli NCTC 10418, 0.5 µg/mL; in test [1] (setting [2]) it was 5 µg/mL; in test [1] (setting [3]), 2.5 µg/mL; in the test on S. pyogenes CN 10, 0.2 µg/mL. Further, the MIC against P. mirabilis C 977 was 0.2 µg/mL; in the test on Ps. aeruginosa Dalgleish, 50 µg/mL; against S. aureus Russell, 50 µg/mL; with S. aureus Oxford it was 1 µg/mL; with E. coli JT 425 it was 5 µg/mL; against S. faecalis I, 25 µg/mL.

Turning to `NS(=O)(=O)c1ccc(Nc2ncc(NC(=O)N[C@@H](C(=O)N[C@@H]3C(=O)N4[C@@H](C(=O)O)CS[C@H]34)c3ccc(O)cc3)c(O)n2)cc1` [Example 4, 6β-[D,2-2-(4-Aminosulphonylanilino)-4-hydroxypyrimidyl-5-aminocarbonylamino}-2-(4-hydroxyphenyl)]acetamido-bisnorpenicillanic acid, sodium salt], the MIC in the test on E. coli ESS turned out to be 0.05 µg/mL; against K. aerogenes A, 0.25 µg/mL; with E. coli JT 4, 100 µg/mL; in the test with S. marcescens US 32, 1 µg/mL; in the test on P. rettgeri, 2.5 µg/mL; in the test with N. catarrhalis 1502, 0.05 µg/mL. Besides, the MIC with P. mirabilis 889 is above 100 µg/mL; against E. cloacae N1, 2.5 µg/mL; against E. coli NCTC 10418, 0.25 µg/mL; in test [1] (setting [2]), 2.5 µg/mL; in test [1] (setting [3]) it was 0.5 µg/mL; against S. pyogenes CN 10, 0.1 µg/mL. For the same molecule, the MIC in the test with P. mirabilis C 977 came out at 2.5 µg/mL; in the test on Ps. aeruginosa Dalgleish it was 25 µg/mL; against S. aureus Russell it was 25 µg/mL; in the test with S. aureus Oxford it was 2.5 µg/mL; against E. coli JT 425, 2.5 µg/mL; against S. faecalis I, 25 µg/mL.
